Assay results taken from US20220096650A1 (Glaxosmithkline Intellectual Property Development Limited, priority 2019, published 2022).
One block for each molecule: values may come before it.

Legend:
[1] = system: cells expressing human or cynomolgus PD-1; conditions: human versus cynomolgus PD-1; cited from earlier work
[2] = target: T1, cynomolgus PD-1 (cynomolgus); assay: kinetic analysis (bio-light interferometry)
T1 chain: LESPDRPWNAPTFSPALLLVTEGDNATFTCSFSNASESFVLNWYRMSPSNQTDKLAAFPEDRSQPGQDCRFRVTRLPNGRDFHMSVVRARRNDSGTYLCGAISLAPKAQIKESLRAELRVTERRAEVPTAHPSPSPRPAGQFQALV

Molecule: pembrolizumab: monoclonal IgG4 kappa antibody that binds the PD-1 receptor and blocks its interaction with PD-L1 and PD-L2
- blocking of binding of human PD-1 ligands to cells expressing human or cynomolgus PD-1 [1]: comparable potency

- Kd [2]: 0.118 nM
B1: Pembrolizumab (antibody, human IgG4 S228P, kappa, V domains shown)
VH: QVQLVQSGVEVKKPGASVKVSCKASGYTFTNYYMYWVRQAPGQGLEWMGGINPSNGGTNFNEKFKNRVTLTTDSSTTTAYMELKSLQFDDTAVYYCARRDYRFDMGFDYWGQGTTVTVSS
VL: EIVLTQSPATLSLSPGERATLSCRASKGVSTSGYSYLHWYQQKPGQAPRLLIYLASYLESGVPARFSGSGSGTDFTLTISSLEPEDFAVYYCQHSRDLPLTFGGGTKVEIKR
notes: also called MK3475
